In patent publication US20250282742A1, “BENZOFURAN DERIVATIVES FOR TARGETING AUTOPHAGY” (Automera PTE. LTD, priority 2024, published 2025):

Test system: p62 puncta in HeLa cells
Assay: p62 puncta assay (immunocytochemistry and imaging, EVOS M7000 or Operetta CLS)
Assay type: cell-based
Settings: Homo sapiens, fold change in p62 puncta levels relative to DMSO control, 24 hr
Experimental: HeLa cells were seeded in coated 96-well plates (10,000 cells) and allowed to adhere overnight. After 24 hours of treatment with either vehicle (DMSO) or test compounds, the media was discarded, and cells were rinsed with ice-cold 1×PBS before fixation by 4% formaldehyde or paraformaldehyde for 20 min. Cells were then washed with 1×PBS and permeabilized with 0.1% Triton X-100 in PBS for 20 min and blocked with Blocking Buffer in PBS for 1 hour. The cells were incubated thereafter for 1 hour with anti-p62 primary antibody in Blocking Buffer, followed by incubation with secondary antibody for 1 hour. DAPI dye was used to visualize nuclei of fixed cells. The blocking buffer used were 5% Fetal Bovine Serum (FBS, ThermoFIsher Scientific, 10270106) and Li-cor Intercept (PBS) Blocking Buffer (Li-cor, 927-70001). The primary antibody used was mouse anti-p62 primary antibody (Novus Biologicals, H00008878-MO1). The secondary antibodies used were goat anti-mouse Alexa Fluor Plus 488 secondary antibody (Invitrogen, GOXMS) and goat anti-mouse Alexa Fluor 488 secondary antibody (Invitrogen, A-11029). The DAPI dyes used were DAPI dye (Invitrogen, 62248) and DAPI dye (Invitrogen, D1306).
For the EVOS M7000 System, cells were imaged on the EVOS M7000 microscope using a 20× air objective (Nikon, N.A 0.45). DAPI and p62 channels were illuminated with LED light cubes using integrated hard-coated filter sets for DAPI (357/447 nm) and GFP (470/525 nm) respectively. Images were analysed for p62 puncta count on the Celeste 6.0 software.
For the Operetta CLS System, cells were imaged on the Operetta CLS using a 63× water objective on the DAPI and Alexa 488 channels. Images were analysed for p62 puncta count on the Harmony 5.1 software.
HeLa cells were treated with compounds for 24 hours to evaluate the effect of these compounds on p62 puncta activity. The resulting changes in levels of p62 puncta were assessed by imaging, either on the EVOS M7000 or Operetta CLS systems as described in experimental procedures. The fold change of p62 puncta levels induced by compound treatment relative to vehicle control (DMSO) was determined and summarized in Table 10.

SMILES | fold induction at 5 µM
OCCNCc1ccc2cc(CN3CCCCC3)oc2c1 [compound 25] | < 2
OCCNCc1ccc2cc(-c3ccccc3Cl)oc2c1 [compound 72] | > 2
OCCNCc1ccc2cc(-c3cccc(Cl)c3)oc2c1 [compound 73] | > 2
OCCNCc1ccc2cc(-c3ccc(Cl)cc3)oc2c1 [compound 74] | > 2
COc1ccc(-c2cc3ccc(CNCCO)cc3o2)cc1 [compound 76] | > 2
CC(C)NCCOCc1ccc2cc(-c3ccccc3)oc2c1 [compound 77] | > 2
CC(C)NCC(O)COc1ccc2cc(-c3ccccc3)oc2c1 (stereo not shown) [compound 78] | > 2
CC(C)NCCOCc1ccc2cc(CCc3ccc(F)cc3)oc2c1 [compound 79] | > 2
CC(C)NCC(O)COc1ccc2cc(CCc3ccc(F)cc3)oc2c1 (stereo not shown) [compound 80] | > 2
CC(C)(C)OC(=O)NCCOCCOCCOCCNCc1ccc2cc(Cc3ccccc3)oc2c1 [compound 82, tert-butyl (1-(2-benzylbenzofuran-6-yl)-5,8,11-trioxa-2-azatridecan-13-yl)carbamate] | < 2
C#CCCOCCOCCNCc1ccc2cc(CCc3ccc(F)cc3)oc2c1 [compound 83, 2-(2-(but-3-yn-1-yloxy)ethoxy)-N-((2-(4-fluorophenethyl)benzofuran-6-yl)methyl)ethan-1-amine] | > 2
C#CCCOCCOCCOCCNCc1ccc2cc(CCc3ccc(F)cc3)oc2c1 [compound 84] | > 2
CNCCOCCOCCNCc1ccc2cc(CCc3ccc(F)cc3)oc2c1 [compound 86] | > 2
CNCCOCCOCCOCCNCc1ccc2cc(CCc3ccc(F)cc3)oc2c1 [compound 87] | > 2
CC(C)(C)OC(=O)N1CCC(OCCOCCNCc2ccc3cc(CCc4ccc(F)cc4)oc3c2)CC1 [compound 90] | > 2
C#CCCOCCOCCOCCNCc1ccc2cc(-c3ccccc3)oc2c1 [compound 94] | > 2
COC(=O)CCOCCOCCNCc1ccc2cc(-c3ccccc3)oc2c1 [compound 95, methyl 3-(2-(2-(((2-phenylbenzofuran-6-yl)methyl)amino)ethoxy)ethoxy)propanoate] | > 2
C#CCCOCCOCCOCCNCc1ccc2cc(Cc3ccc(Cl)cc3)oc2c1 [compound 96] | > 2
C#CCCOCCOCCNCC(O)COc1ccc2cc(Cc3ccccc3)oc2c1 (stereo not shown) [compound 98, 1-((2-benzylbenzofuran-6-yl)oxy)-3-((2-(2-(but-3-yn-1-yloxy)ethoxy)ethyl)amino)propan-2-ol] | > 2
COC(=O)CCOCCNCC(O)COc1ccc2cc(Cc3ccccc3)oc2c1 (stereo not shown) [compound 99] | < 2
COCCNCc1ccc2cc(-c3ccccc3)oc2c1 [compound 105] | > 2
OCCNCc1ccc2nc(-c3ccccc3)oc2c1 [compound 106] | > 2
COC1CC(NCc2ccc3cc(-c4ccccc4)oc3c2)C1 (stereo not shown) [compound 107] | < 2

SMILES | fold induction at 5 µM
COC1CN(Cc2ccc3cc(-c4ccccc4)oc3c2)C1 [compound 108] | > 2
CO[C@@H]1CCCN(Cc2ccc3cc(-c4ccccc4)oc3c2)C1 [compound 109] | < 2
CO[C@H]1CCCN(Cc2ccc3cc(-c4ccccc4)oc3c2)C1 [compound 110] | < 2
COC1CN(Cc2ccc3cc(-c4cccnc4)oc3c2)C1 [compound 112] | < 2
OCCNCc1ccc2nc(-c3ccccc3)sc2c1 [compound 113] | > 2
CNCCCOCCOCCNCc1ccc2cc(-c3ccccc3)oc2c1 [compound 120] | > 2
CNC(=O)CCOCCOCCNCc1ccc2cc(-c3ccccc3)oc2c1 [compound 121] | < 2
CC(C)(C)OC(=O)NCCOCCNCc1ccc2cc(CCc3ccc(F)cc3)oc2c1 [compound 122] | > 2
CC(C)(C)OC(=O)N1CCC(COCCNCc2ccc3cc(CCc4ccc(F)cc4)oc3c2)CC1 [compound 123] | > 2
CC(C)(C)OC(=O)NCCOCCOCCNCc1ccc2cc(CCc3ccc(F)cc3)oc2c1 [compound 124] | > 2
CC(C)(C)OC(=O)NCCOCCOCCOCCNCc1ccc2cc(CCc3ccc(F)cc3)oc2c1 [compound 125] | > 2
C#CCOCCOCCOCCNCc1ccc2cc(CCc3ccc(F)cc3)oc2c1 [compound 126] | > 2
CC(C)(C)OC(=O)CCOCCOCCNCc1ccc2cc(CCc3ccc(F)cc3)oc2c1 [compound 127] | > 2
CC(C)(C)OC(=O)COCCCOCCNCc1ccc2cc(CCc3ccc(F)cc3)oc2c1 [compound 128] | > 2
C#CCOCCOCCNCc1ccc2cc(CCc3ccc(F)cc3)oc2c1 [compound 129] | > 2
CC(C)(C)OC(=O)COCCNCc1ccc2cc(CCc3ccc(F)cc3)oc2c1 [compound 131] | > 2
CC(C)(C)OC(=O)CCOCCNCc1ccc2cc(CCc3ccc(F)cc3)oc2c1 [compound 132] | > 2
C#CCCOCCNCc1ccc2cc(CCc3ccc(F)cc3)oc2c1 [compound 133] | > 2
CC(C)(C)OC(=O)c1ccc(COCCNCc2ccc3cc(CCc4ccc(F)cc4)oc3c2)cc1 [compound 134] | > 2
COC(=O)c1cccc(COCCNCc2ccc3cc(CCc4ccc(F)cc4)oc3c2)c1 [compound 135] | < 2
Fc1ccc(CCc2cc3ccc(CNCCOCCCCl)cc3o2)cc1 [compound 136] | > 2
CC(C)(C)OC(=O)CCCCOCCNCc1ccc2cc(CCc3ccc(F)cc3)oc2c1 [compound 137] | < 2
C#CCCCCCOCCNCc1ccc2cc(CCc3ccc(F)cc3)oc2c1 [compound 138] | > 2

SMILES | fold induction at 5 µM
CC(C)(C)OC(=O)CCCCCCCCOCCNCc1ccc2cc(CCc3ccc(F)cc3)oc2c1 [compound 139] | < 2
CC(C)(C)OC(=O)CCCCCOCCNCc1ccc2cc(CCc3ccc(F)cc3)oc2c1 [compound 140] | < 2
C#CCCCCCCOCCNCc1ccc2cc(CCc3ccc(F)cc3)oc2c1 [compound 141] | > 2
CCOC(=O)C1CCN(C(=O)COCCNCc2ccc3cc(CCc4ccc(F)cc4)oc3c2)CC1 [compound 142] | > 2
CC(C)(C)OC(=O)CCCOCCNCc1ccc2cc(CCc3ccc(F)cc3)oc2c1 [compound 145] | < 2
COC(=O)C1(COCCNCc2ccc3cc(CCc4ccc(F)cc4)oc3c2)COC1 [compound 146] | < 2
CC(C)(C)OC(=O)N1CCN(CCOCCNCc2ccc3cc(CCc4ccc(F)cc4)oc3c2)CC1 [compound 147] | > 2
CC(C)(C)OC(=O)NCCCCCOCCNCc1ccc2cc(CCc3ccc(F)cc3)oc2c1 [compound 148] | < 2
CC(C)(C)OC(=O)NCCCCCCCCOCCNCc1ccc2cc(CCc3ccc(F)cc3)oc2c1 [compound 149] | > 2
CC(C)(C)OC(=O)Nc1ccc(COCCNCc2ccc3cc(CCc4ccc(F)cc4)oc3c2)cc1 [compound 151] | > 2
CC(C)(C)OC(=O)N1CCC(CCOCCNCc2ccc3cc(CCc4ccc(F)cc4)oc3c2)CC1 [compound 152] | > 2
CC(C)(C)OC(=O)Nc1cccc(COCCNCc2ccc3cc(CCc4ccc(F)cc4)oc3c2)c1 [compound 153] | > 2
CC(C)(C)OC(=O)NCCCOCCNCc1ccc2cc(CCc3ccc(F)cc3)oc2c1 [compound 154] | > 2
CC(C)(C)OC(=O)N1CC(COCCNCc2ccc3cc(CCc4ccc(F)cc4)oc3c2)C1 [compound 155] | > 2
CC(C)(C)OC(=O)NC1(COCCNCc2ccc3cc(CCc4ccc(F)cc4)oc3c2)CC1 [compound 156] | > 2
CC(C)(C)OC(=O)N1CCC(OCCNCc2ccc3cc(CCc4ccc(F)cc4)oc3c2)C1 (stereo not shown) [compound 157] | > 2
CC(C)(C)OC(=O)N1CC(OCCNCc2ccc3cc(CCc4ccc(F)cc4)oc3c2)C1 [compound 158] | > 2
COC(=O)c1ccc(OCCOCCNCc2ccc3cc(CCc4ccc(F)cc4)oc3c2)cc1 [compound 159] | > 2
COC(=O)CCOCCOCCOCCNCc1ccc2cc(CCc3ccc(F)cc3)oc2c1 [compound 160] | < 2
C#CCCCCCCCCOCCNCc1ccc2cc(CCc3ccc(F)cc3)oc2c1 [compound 161] | > 2
COC(=O)c1ccc(N2CCC(COCCNCc3ccc4cc(CCc5ccc(F)cc5)oc4c3)CC2)cc1 [compound 162] | > 2
